Laboratory results from patent US20250367113A1, “DRUG DELIVERY SYSTEM COMPRISING AN ANTI-INFLAMMATORY AGENT OR A SALT THEREOF FOR THE APPLICATION TO ESOPHAGEAL MUCOUS MEMBRANES” (EsoCap AG, priority 2022, published 2025).
Each block holds one compound with its values, some of them ahead of it.

Experiments:
[1] = UV/Vis spectroscopy of tofacitinib content and spectrum in the polymer film; type: physicochemical; conditions: citrate buffer, pH 4.0 with 20% methanol
Procedure: Further, the film was analyzed for the content of tofacitinib. To this end, 6 circular samples with a diameter of 1.9 cm (2.84 cm^2) were cut at random positions of the film and analyzed with a UV/Vis spectroscopy in a citrate buffer, pH 4.0 with 20% methanol. The absorption spectrum is shown in FIG. 10 in comparison to a reference sample (tofacitinib solved in citrate buffer, pH 4.0 with 20% methanol).

[2] = test system: eosinophilic esophagitis; conditions: person, after 3 months of treatment; cited from earlier work
[3] = test system: atopic dermatitis; conditions: placebo-controlled phase IIa study; cited from earlier work
[4] = test system: eotaxin-3 secretion; conditions: cells from eosinophilic esophagitis patients; cited from earlier work
[5] = test system: refractory eosinophilic esophagitis; conditions: systemically administered, small case series; cited from earlier work
[6] = test system: refractory oral graft-versus-host disease; conditions: single case, cited from earlier work

stability of tofacitinib in the film (absorption spectrum versus reference sample) [1]: can be stably prepared in a film
SMILES: C[C@@H]1CCN(C(=O)CC#N)C[C@@H]1N(C)c1ncnc2[nH]ccc12 [Tofacitinib, tofacitinib]
appearance of the esophagus [2]: significantly improve the appearance of the esophagus | number of eosinophils found in esophageal biopsies [2]: least number of eosinophils found in esophageal biopsies | results of topical treatment of atopic dermatitis [3]: convincing results

SMILES: NC(=O)c1cnc(NCCc2ccc(O)c(Cl)c2)nc1NCc1ccccc1 [AS1517499]
eotaxin-3 secretion by epithelial cells and fibroblasts [4]: block eotaxin-3 secretion

SMILES: Cn1cnc([N+](=O)[O-])c1Sc1ncnc2nc[nH]c12 [azathioprine]
efficacy in the treatment of refractory eosinophilic esophagitis [5]: efficient | tolerability ([6]; additional topical administration): well tolerated | clinical benefit of additional topical administration ([6]; topically and systemically administered suspension): seemed to add some clinical benefit

SMILES: Cc1oncc1C(=O)Nc1ccc(C(F)(F)F)cc1 [leflunomide]
eotaxin-3 secretion by epithelial cells and fibroblasts [4]: block eotaxin-3 secretion

SMILES: Sc1ncnc2nc[nH]c12 [6-mercaptopurine]
efficacy in the treatment of refractory eosinophilic esophagitis [5]: efficient
